From patent publication US12325862B2, “Compositions and methods for transgenic crops resistant to thaxtomins” (University of Florida Research Foundation, Inc., priority 2019, dated 2025)

B1: NfsB: nitroreductase from Haemophilus influenzae (SEQ ID NO: 4), recombinant with C-terminal His6 tag (protein, listed as Haemophilus influenzae)
chain: MTQLTREQVLELFHQRSSTRYYDPTKKISDEDFECILECGRLSPSSVGSEPWKFLVIQNKTLREKMKPFSWGMINQLDNCSHLVVILAKKNARYDSPFFVDVMARKGLNAEQQQAALTKYKALQEEDMKLLENDRTLFDWCSKQTYIALANMLTGASALGIDSCPIEGFHYDKMNECLAEEGLFDPQEYAVSVAATFGYRSRDIAKKSRKGLDEVVKWVG
modifications: C-terminal His6 tag

Assays:
radish seedlings = experiment: Radish seedling assay; assay type: in vivo; details: for growth of radish seedlings on agar plate: after seven days, compared with negative control DMSO
Method: Serial concentrations of thaxtomins in DMSO were added into 20 mL of 1.5% warm agar solution with gentle agitation to the final concentrations range from 0 to 2 μM. DMSO was included as a negative control. The solution was then poured into the plate for solidification at room temperature for 30 min. Radish seeds (W. Atlee Burpee & Co., Warminster Township, Pennsylvania) were surface disinfested, pregerminated, and selected when the radicle was […] and just emerged from the seed coat. Six radish seedlings were equally located on the surface of each plate with the root ends all pointed in the same direction. Agar plates were covered and sealed with Parafilm®. The seedlings in the agar plates grew at room temperature under fluorescent lighting (12 h per day for 7 days), and then the seedling with average size of all seedlings in the same plate was selected for comparison.
A radish seedling assay was carried out to investigate the herbicidal activity of serial concentrations of 4-amino thaxtomin A (compound 5). The assay also included DMSO as negative control and thaxtomin A (1) as positive control. […] The diminished herbicidal activity is caused by the transformation of the nitro group of thaxtomin A (1) into the amine group.

[1] = NfsB enzymatic reaction, conditions optimized with thaxtomin A as substrate; assay type: biochemical
Method: Enzymatic reaction conditions were optimized with thaxtomin A as substrate. […] When coupled with a glucose dehydrogenase (GDH)- or phosphite dehydrogenase (PTDH)-based NADPH regeneration system, the enzyme at 10 μM achieved greater than 90% conversion of thaxtomin A (2 mM) at 37° C. in 8 hours. […] In addition, a crude extract of engineered thaxtomin producing strain Streptomyces albus-thx2 was prepared; the extract contained about 69% thaxtomin A based on HPLC analysis.

| Molecule | growth of radish seedlings on agar plate (radish seedlings; 0.05 μM) | growth of radish seedlings on agar plate (radish seedlings; 2.0 μM) | herbicidal activity to radish seedlings (radish seedlings; overall conclusion, 0.05 μM and 2.0 μM) | conversion of thaxtomin A (1) in crude extract into compound 5 ([1]; crude extract of Streptomyces albus-thx2, about 69% thaxtomin A) | conversion of thaxtomin A ([1]; enzyme 10 μM, thaxtomin A 2 mM, 37° C., 8 hours, GDH- or PTDH-based NADPH regeneration system) | temperature of highest enzyme activity ([1]; thaxtomin A as substrate) |
| --- | --- | --- | --- | --- | --- | --- |
| CN1C(=O)[C@](O)(Cc2cccc(O)c2)N(C)C(=O)[C@@H]1Cc1c[nH]c2cccc(N)c12 [compound 5, 4-amino thaxtomin A] | the same as the negative control DMSO | the same as the negative control DMSO | minimal to no herbicidal activity |  |  |  |
| CN1C(=O)[C@](O)(Cc2cccc(O)c2)N(C)C(=O)[C@@H]1Cc1c[nH]c2cccc([N+](=O)[O-])c12 [thaxtomin A, reference compound] |  | significantly inhibited |  |  |  |  |
| B1 |  |  |  | completely converted | greater than 90% | 37 °C |
